This note sets out measurements from patent US10106582B2, “Complex-formation-modulating agents and uses therefor” (Factor Therapeutics Limited, priority 2012, dated 2018).

In this experiment the test system is MCF-7 cells. Put plainly: Transwell migration assay, IGF-I+IGFBP-5+VN trimeric complex-stimulated MCF-7 cell migration. Type of experiment: cell-based, human. The source says: Two motifs (motifs 1 and 8) within native VN, deemed potentially significant in supporting the binding of IGF-II, IGFBP-3 and IGFBP-5, were identified as outlined in the previous section. After preliminary in silico analyses motif 8 (J4-7) was deemed as potentially the most significant region within native VN supporting binding interactions of all the three IGF-II, IGFBP-3 and IGFBP-5 proteins and was chosen for the initial analyses. The VN-peptide covering the sequences of motif 8 was designed such that it covered all the 3AA frameshift sets that contributed to a positive spot within the motif 8 (see, FIG. 3 and Table 7). The sequence of this peptide is RVNLRTRRVDTVDPPYPRS [SEQ ID NO:100] and is designated P8. […] The sequence of that peptide is […] [SEQ ID NO:86] and is designated P7. […] The functional effects of these peptides on IGF-I:IGFBP:VN-stimulated breast cancer cell migration were investigated using Transwell® assays. Transwells® were pre-bound with VN, either alone or in combination with IGF-I and IGFBP-5 (TRI). Treatment with TRI supplemented with increasing concentrations of peptides P7 and/or P8 were assayed. TRI supplemented with Anlg or Neg peptide were included as positive and negative controls of migration inhibition, respectively. All unbound proteins were removed with washing and MCF-7 cell migration was assessed over 15 hours.
The Transwell® inserts were prepared by pre-binding the lower chamber and the under-surface of the 8-μm pore membranes with proteins as described below. For all 2D functional assays described throughout this study, including Transwell® the treatments for the pre-binding steps were VN, IGF-I+IGFBP-5+VN (TRI) complex, either alone or in combination with respective controls or VN-peptides. The concentrations of the proteins added into the culture wells were VN, 1 μg/mL; IGF-I, 30 ng/mL and IGFBP-5, 90 ng/mL, unless otherwise stated. The concentration of VN-peptides used are indicated where appropriate.
Optimal IGF-I:IGFBP-5:VN-mediated attachment and migration of MCF-7 cells in multiwell plates is obtained by pre-binding human native-IGF-I and/or IGFBP-5 and VN at concentrations of 30 ng/mL, 90 ng/mL and 1 μg/mL per well, respectively, to the lower chambers and under surfaces of Transwells®. […] For Anlg, concentrations varying from 30 ng/mL to 300 ng/mL were used.
Transwells® were prepared by pre-binding the test proteins, either alone or in combinations, to the lower chambers and under-surfaces of Transwells® following procedures previously described (Kricker et al., 2003). Briefly, 0.5 mL DMEM/F12 serum-free phenol-red free medium (SFM) containing 1 μg/mL VN was added to the lower chambers of 24-well, 8-μm pore Transwell® plates and incubated for 3 hours at 37° C. Unbound VN was removed and the wells were washed twice with 0.5 mL SFM+0.5% BSA following which 0.5 mL of SFM+0.5% BSA was placed in the lower chamber to block surfaces with no protein bound. To pre-bind growth factors, 0.5 mL SFM+0.05% BSA containing native IGF-I (30 ng/mL), IGFBP-5 (90 ng/mL) or Anlg, either alone or in combination, were added to the lower chambers of the Transwells® and incubated overnight at 4° C. The solution containing unbound growth factors was removed and the wells were washed twice with SFM+0.05% BSA and replaced with 0.5 mL of SFM+0.05% BSA. Throughout the pre-binding procedure care was taken to keep the upper surface of the Transwell® inserts dry.
Migration assays were essentially performed following protocols described previously in Leavesley et al 1993, J Cell Biol. 121:163-70. The cells in culture flasks were split 1:1, 24 hours prior to performing the migration assay. The cells were serum-starved for 4 hours and a cell suspension containing 6×10^4 cells in 200 μL SFM+0.05% BSA was seeded onto the upper-surface of the pre-coated Transwell® inserts and incubated for 15 hours at 37° C., 5% CO2 (refer to above for proteins pre-bound and concentrations used). […]

As for “KTYLFKGSQYWRFEDG [Neg, reference compound]”, the MCF-7 cell migration (TRI supplemented with non-binding peptide, concentration not given, 15 hours) is 276±24 % of VN. The “Effect on TRI-stimulated MCF-7 cell migration” value (non-binding peptide supplemented into TRI, concentration not given) was “did not affect”.
Regarding “LFSSEESNLGANNYDDYRMDWL (listed as Homo sapiens) [Peptide P7, human VN motif 7 mimic]”, the MCF-7 cell migration is 94.7±0.2 % of VN (TRI supplemented with peptide at 3× molar concentration of IGFBP-5 (43 ng/mL P7, 38 ng/mL P8), 15 hours) and 146±14 % of VN (TRI supplemented with peptide at 9× molar concentration of IGFBP-5, 15 hours).
